Reference: PubChem BioAssay (NCI)
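These data come from cells grown in 96-well plates and exposed to compound for 48 hours at five concentrations. GI50 = concentration required for 50% inhibition of growth. TGI: total growth inhibition.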

How the values were obtained:
Test in all cases: NCI-60 cell line screen, 48 h
[1] = test system: A549 NSCLC
[2] = test system: LOX IMVI melanoma
[3] = test system: M14 melanoma
[4] = test system: NCI-H23 lung
[5] = test system: NCI-H460 lung
[6] = test system: SF-268 CNS
[7] = test system: SK-MEL-2 melanoma
[8] = test system: U251 CNS
[9] = test system: UACC-257 melanoma
[10] = test system: UACC-62 melanoma

Row | Structure (SMILES) | GI50 [1] [µM] | TGI [1] [µM] | GI50 [2] [µM] | TGI [2] [µM] | GI50 [3] [µM] | TGI [3] [µM] | GI50 [4] [µM] | TGI [4] [µM] | GI50 [5] [µM] | TGI [5] [µM] | GI50 [6] [µM] | TGI [6] [µM] | GI50 [7] [µM] | TGI [7] [µM] | GI50 [8] [µM] | TGI [8] [µM] | GI50 [9] [µM] | TGI [9] [µM] | GI50 [10] [µM] | TGI [10] [µM]
1 | O=C1C(=O)c2ccccc2-c2ccccc21 | 2.48 | 6.54 | 0.367 | 1.79 | 1.76 | 3.29 | 1.68 | 3.99 | 1.92 | 3.99 | 1.61 | 3.15 | 2.02 | 4.79 | 1.67 | 3.53 | 1.52 | 3.07 | 1.52 | 3.03
2 | O=[N+]([O-])c1cc(CCl)ccc1CCl |  | 16.9 |  | 4.12 |  | 3.59 |  | 5.1 |  | > 39.3 |  | 4.21 |  | 7.83 |  | 3.14 |  | > 20.1 |  | 11.4
3 | COc1cc(-c2cc(=O)c3ccccc3o2)ccc1N |  | > 100 |  | > 100 |  | > 100 |  | > 100 |  | > 100 |  | > 100 |  | > 100 |  | > 100 |  | > 100 |  | > 100
4 | COc1ccc(-c2nn(-c3cccc(NC(=O)Nc4ccc(Cl)c(C(F)(F)F)c4)c3)cc2-c2ccncc2)cc1Cl | 1.98 | > 100 | 2.95 | 10.6 | 1.9 | 4.44 | 3.01 | 14.3 | 1.99 | 8.99 | 4.21 | 35.9 | 2.77 | 5.71 | 1.32 | 3.34 | 2.44 | 7.42 | 1.93 | 5.01
5 | O=c1cc(-c2ccc(Cl)cc2)[nH]c2ncccc12 |  | > 100 |  | > 100 |  | > 100 |  | > 100 | 37.9 | > 100 |  | > 100 |  | > 100 |  | > 100 |  | > 100 |  | > 100
6 | Clc1cc(Cl)c(Cl)c(-c2nc(-c3cccnc3)cs2)c1 | 24.8 | > 100 | 16 | 37.6 | 4.47 | > 100 | 30 | > 100 | 37.7 | > 100 | 17.9 | 69.8 | 22.1 | 81.9 | 37.8 | > 100 | 15.3 | 64.8 | 24 | 73.3
7 | CCOC(=O)/C(=C/c1ccc([N+](=O)[O-])cc1)C(=O)c1ccccc1 | 6.28 | 20.6 | 1.77 | 3.38 | 2.11 | 5.01 | 2.25 | 5.56 | 2.69 | 7.15 | 2.83 | 10.7 | 2.24 | 5.15 | 2.13 | 4.48 | 3.12 | 7.61 | 1.93 | 4.28
8 | CC1(C)OC(C(N)=O)=C(C(N)=O)O1 |  | > 100 |  | > 100 |  | > 100 |  | > 100 |  | > 100 |  | > 100 |  | > 100 |  | > 100 |  | > 100 |  | > 100
